# Data: patent US8507219B2, “Method of treating inflammation with statins” (MUSC Foundation for Research Development, priority 1997, dated 2013)
# Entries after “also recorded” stand apart in the source; their conditions may differ. Read-outs that look alike come from different tables or passages of the source.
# Columns and labels:
# iNOS = assay: Expression of iNOS protein (immunoblot) and mRNA (Northern) in rat primary astrocytes; assay type: cell-based
# Procedure: (§1) Immunoblot analysis for iNOS Following 24 h incubation in the presence or absence of stimuli by different cytokines or LPS, macrophages were scraped off, washed with Hank's buffer, and homogenized in 50 mM Tris-HCl (pH 7.4) containing protease inhibitors (1 nM PMSF, 5 μg/ml aprotinin, 5 μg/ml pepstatin A, and 5 μg/ml leupeptin). After electrophoresis the proteins were transferred onto a nitrocellulose membrane, and the iNOS band was visualized by immunoblotting with antibodies against mouse macrophage iNOS and [^125I]-labeled protein A (Singh et al., 1988).
# RNA isolation, Northern blot analysis, and reverse-transcriptase coupled polymerase chain reaction (RT-PCR) Stimulated peritoneal macrophages were taken out from culture dishes directly by adding Ultraspec-II RNA reagent (Biotecx Laboratories Inc.) and total RNA was isolated according to the manufacturer's protocol. For northern blot analyses, 20 μg of total RNA was electrophoresed on 1.2% denaturing formaldehyde-agarose gels, electrotransferred to Hybond-Nylon Membrane (Amersham) and hybridized at 68° C. with ^32P-labeled cDNA probe using Express Hyb hybridization solution (Clontech) as described by the manufacturer. […]; After hybridization filters were washed two to three times in solution I (2×SSC, 0.05% SDS) for 1 h at room temperature followed by solution II (0.1×SSC, 0.1% SDS) at 50° C. for another hour. The membranes were then dried and exposed to X-ray film (Kodak). The same filters were stripped and rehybridized with probes for GAPDH. The relative mRNA content for iNOS was measured after scanning the bands with a Biorad (Model GS-670) imaging densitometer.
# as §1, with “of” for “of stimuli by”, “stimuli, cells” for “cytokines or LPS, macrophages”, “inhibitors.” for “inhibitors (1 nM PMSF, 5 μg/ml aprotinin, 5 μg/ml pepstatin A, and 5 μg/ml leupeptin).”, “A.” for “A (Singh et al., 1988).”
# RNA isolation and Northern blot analysis Cells were taken out from culture dishes directly by adding Ultraspec-II RNA reagent (Biotecx Laboratories Inc.) and total RNA was isolated according to the manufacturer's protocol. For Northern blot analyses, 20 μg of total RNA was electrophoresed on 1.2% denaturing formaldehyde-agarose gels, electrotransferred to Hybond-Nylon Membrane (Amersham) and hybridized at 68° C. with ^32P-labeled cDNA probe using Express Hyb hybridization solution (Clontech) as described by the manufacturer. […]; After hybridization filters were washed two or three times in solution I (2×SSC, 0.05% SDS) for one hour at room temperature followed by solution II (0.1×SSC, 0.1% SDS) at 50° C. for another hour. The membranes were then dried and exposed with X-ray films (Kodak). The same filters were stripped and rehybridized with probes for GAPDH. The relative mRNA content for iNOS was measured after scanning the bands with a Biorad (Model GS-670) imaging densitometer.
# as §1, with “After a” for “Following”, “of” for “of stimuli by”, “stimuli, cells” for “cytokines or LPS, macrophages”, “mM” for “nM”, “A.” for “A (Singh et al., 1988).”
# RNA isolation and Northern blot analysis Cells were taken out from culture dishes directly by adding Ultraspec-II RNA reagent (Biotecx Laboratories Inc., Houston, Tex.), and total RNA was isolated according to the manufacturer's protocol. […]
# [1] = system: NO production in rat resident macrophages; assay: LPS-/cytokine-induced NO production (nitrite) in rat resident peritoneal macrophages; assay type: cell-based
# Procedure: Isolation of Rat Macrophages and Induction of NO Production Resident macrophages were obtained from rats by peritoneal lavage with sterile RPMI 1640 medium containing 1% fetal bovine serum and 100 μg/ml gentamicin (Wang et al., 1995). Cells were washed three times with RPMI 1640 at 4° C. All cell cultures were maintained at 37° C. in a humidified incubator containing 5% CO2 in air. Macrophages, at a concentration of 2×10^6/ml in RPMI 1640 medium containing L-glutamine and gentamicin, were added in volumes of 800 μl to a 35 mm plate. After 1 h, nonadherent cells were removed by washing and 800 μl of serum-free RPMI 1640 medium with various stimuli were added to the adherent cells. After 24 h incubation in 5% CO2 in air at 37° C., the culture supernatants were transferred to measure NO production (Geng et al., 1995; Wang et al., 1995).
# Isolation of rat macrophages and induction of NO production Resident macrophages were obtained from rat by peritoneal lavage with sterile RPMI 1640 medium containing 1% fetal bovine serum and 100 μg/ml gentamicin as described herein. Cells were washed three times with RPMI 1640 at 4° C. All cell cultures were maintained at 37° C. in a humidified incubator containing 5% CO2 in air. Macrophages at a concentration of 2×10^6/ml in RPMI 1640 medium containing L-glutamine and gentamicin were added in volumes of 800 μl to a 35 mm plate. After 1 h, nonadherent cells were removed by washing and 800 μl of serum-free RPMI 1640 medium with various stimuli were added to the adherent cells. After incubation in 5% CO2 in air at 37° C., culture supernatants were transferred to measure NO production.
# Isolation of rat macrophages and induction of NO production Resident macrophages were obtained from rat by peritoneal lavage with sterile RPMI 1640 medium containing 1% FBS and 100 μg/ml gentamicin. Cells were washed three times with RPMI 1640 at 4° C., and were maintained at 37° C. in a humidified incubator containing 5% CO2 in air. Macrophages at a concentration of […] in RPMI 1640 medium containing L-glutamine and gentamicin were added in volumes of 800 μl to a 35-mm plate. After 1 h, nonadherent cells were removed by washing, and 800 μl of serum-free RPMI 1640 medium with various stimuli was added to the adherent cells. After 24 h the culture supernatants were transferred to measure NO production.
# Protein was measured (Bradford, 1976).
# [2] = system: ceramide production in rat primary astrocytes; assay: Degradation of sphingomyelin to ceramide (DAG kinase assay, HPTLC) in rat primary astrocytes; assay type: cell-based
# Procedure: Lipid extraction Approximately 1.0×10^6 cells were exposed to different cytokines in the presence or absence of antioxidants for different periods and lipids were extracted according to the methods described by Welsh (1996).
# Quantification of sphingomyelin by HPTLC and densitometry Sphingomyelin was separated from total lipid extracts by HPTLC (LPK-plates from Whatman Labsales, USA) as described (Ganser et al., 1988) for phospholipids with the modification, that the plate was overrun for 30 min during its development and was dried overnight in vacuum desicator. Sphingomyelin was quantitated by densitometric scanning using Imaging Densitometer (Model GS-670; Bio-Rad, USA) and software provided with the instrument by the manufacturer.
# Quantification of ceramide levels by diacylglycerol kinase assay Ceramide content was quantified essentially according to Priess et al. using diacylglycerol (DAG) kinase and [γ-^32P]ATP (Priess et al., 1986). Briefly, dried lipids were solubilized in 20 μl of an octyl β-D-glucoside/cardiolipin solution (7.5% octyl β-D-glucoside, 5 mM cardiolipin in 1 mM DTPA) by sonication in a sonicator bath. […] The labeled ceramide 1-phosphate was resolved with a solvent system consisting of methyl acetate: n-propanol:chloroform:methanol:0.25% KCl in water:acetic-acid (100:100:100:40:36:2). A standard sample of ceramide was phosphorylated under identical conditions and developed in parallel. […] Quantification of ceramide 1-phosphate was carried out by autoradiography and densitometric scanning using Imaging Densitometer (Model GS-670; Bio-Rad, USA). Values are expressed either as arbitrary units (absorbance) or as percent change.
# Lipid Extraction Approximately 1.0×10^6 cells were exposed to different cytokines in the presence or absence of antioxidants for different periods, and lipids were extracted according to the methods described by Welsh (1996).
# Quantification of Sphingomyelin by High Performance TLC and Densitometry Sphingomyelin was separated from total lipid extracts by high performance TLC (LHPK plates from Whatman) as described by Ganser et al. (1988) for phospholipids with the following modification: the plate was overrun for 30 min during its development and was dried overnight in vacuum desiccator. Sphingomyelin was quantitated by densitometric scanning using Imaging Densitometer (model GS-670; Bio-Rad), and software was provided with the instrument by the manufacturer.
# Quantification of Ceramide Levels by Diacylglycerol Kinase Assay Ceramide content was quantified essentially according to Priess et al. (1986) using diacylglycerol (DAG) kinase and [γ-^32P]ATP. Briefly, dried lipids were solubilized in 20 μl of an octyl β-D-glucoside/cardiolipin solution (7.5% octyl β-D-glucoside, 5 mM cardiolipin in 1 mM DTPA) by sonication in a sonicator bath. […] The labeled ceramide-1-phosphate was resolved with a solvent system consisting of methyl acetate:n-propyl alcohol:chloroform:methanol, 0.25% KCl in water:acetic acid (100:100:100:40:36:2). A standard sample of ceramide was phosphorylated under identical conditions and developed in parallel. […] Quantification of ceramide-1-phosphate was carried out by autoradiography and densitometric scanning using Imaging Densitometer (model GS-670; Bio-Rad). Values are expressed either as arbitrary units (absorbance) or as percent change.
# [3] = system: cultured skin fibroblasts of X-ALD; assay: β-oxidation of lignoceric acid in cultured skin fibroblasts of X-ALD; assay type: cell-based, human; settings: etomoxir, inhibitor of mitochondrial β-oxidation
# [4] = 100 μM mevalonate, 200 μM farnesyl pyrophosphate, 10 μM ubiquinone or cholesterol
compound,measurement,setting,value
CC(O)(CCO)CC(=O)O (centres unmarked) [mevalonate],rescue of the inhibition of iNOS expression and NF-kβ activation by lovastatin / NaPA,iNOS,substantially reversed the inhibitory effect of lovastatin
"CNC(=N)NCCC[C@H](N)C(=O)O [L-NMA, N^G-methyl-L-arginine]",Nitrite,"[1]; LPS 1.0 μg/ml, 24 h, NAC 20 mM 2 h before LPS, NMA 0.1 mM, arginase 100 units/ml with LPS",15.8 ± 2.2 nmol/mg Protein^24h
same,Inhibition (%),"[1]; of LPS (1.0 μg/ml)-induced nitrite, NAC 20 mM 2 h before, NMA 0.1 mM, arginase 100 units/ml with LPS",87%
COC1=C(OC)C(=O)C(C/C=C(\C)CC/C=C(\C)CC/C=C(\C)CC/C=C(\C)CC/C=C(\C)CC/C=C(\C)CC/C=C(\C)CC/C=C(\C)CC/C=C(\C)CCC=C(C)C)=C(C)C1=O [ubiquinone],rescue of the inhibition of iNOS expression and NF-kβ activation by lovastatin / NaPA,iNOS; [4],did not prevent the inhibitory effect of lovastatin and NaPA
"OO [H2O2, hydrogen peroxide]",increase in ceramide production,[2],about 7 fold
"CCCCS(=N)(=O)CCC(N)C(=O)O [buthione (S,R)-sulfoximine]",degradation of sphingomyelin to ceramide / ceramide production,[2],also decreased the level of GSH and induced the production of ceramide
Microcystin,LPS-mediated induction of iNOS protein and mRNA,iNOS,enhanced the LPS-mediated induction of iNOS protein and mRNA
CC(C)CCC[C@@H](C)[C@H]1CC[C@H]2[C@@H]3CC=C4C[C@@H](O)CC[C@]4(C)[C@H]3CC[C@]12C [cholesterol],rescue of the inhibition of iNOS expression and NF-kβ activation by lovastatin / NaPA,iNOS; [4],did not prevent the inhibitory effect of lovastatin and NaPA
"Nc1nc[nH]n1 [ATZ, aminotriazole]",increase in ceramide production,[2],more than 5 fold
CCOC(=O)[C@@]1(CCCCCCOc2ccc(Cl)cc2)CO1 [Etomoxir],effect on stimulated lignoceric acid β-oxidation,[3],had no effect on cAMP-mediated stimulation of lignoceric acid β-oxidation; also recorded: had no effect on lovastatin- or NaPA-mediated stimulation of lignoceric acid β-oxidation
"CC(C)=CCC/C(C)=C/CC/C(C)=C/COP(=O)(O)OP(=O)(O)O [FPP, farnesyl pyrophosphate]",rescue of the inhibition of iNOS expression and NF-kβ activation by lovastatin / NaPA,iNOS,substantially reversed the inhibitory effect of lovastatin
C[C@@]12C(=O)OC(=O)[C@]1(C)[C@H]1CC[C@@H]2O1 [cantharidin],LPS-induced NO production,"[1]; LPS 1.0 μg/ml, 24 h",inhibited the LPS-induced NO production in rat peritoneal macrophages
same,LPS-mediated induction of iNOS protein and mRNA,iNOS; LPS 1.0 μg/ml,enhanced the LPS-mediated induction of iNOS protein and mRNA
CC(=O)O [acetate],degradation of sphingomyelin to ceramide / ceramide production,[2],had no effect on the degradation of SM to ceramide
